{"source": "patent US4267312A", "about": "“Anthracycline derivatives and process for preparing the same” (Sanraku-Ocean Co., Ltd., priority 1978, dated 1981)", "key": {"[1]": {"system": "murine leukemic L1210 cells", "assay": "growth inhibition of murine leukemic L1210 cells in culture", "format": "cell-based", "conditions": "Mus musculus, RPMI 1640, 20% calf serum, 37° C., read-out: inhibition of control growth; for inhibition at 0.5 µg/mL: 0.5 μg/ml", "experimental": "For example, L1210 cells were inoculated into a RPMI 1640 medium (Nissui, Rosewell Park Memorial Institute 1640) containing 20% calf serum at the cell density of 5×10^4 cells/ml and the compound in the present invention was simultaneously added to the medium at the concentration of 0.1 and 0.5 μg/ml and cultivated at 37° C. in a CO2 incubator."}, "[2]": {"system": "biosynthesis of RNA in L1210 cells", "assay": "RNA biosynthesis in L1210 cells (incorporation of 14C-uridine into acid-insoluble materials)", "format": "cell-based, murine", "conditions": "Mus musculus, L1210, 1 h; 60 min, 37° C., 14C-uridine 0.05 μCi/ml; read-out: IC50 of the incorporation of radioactivity into acid-insoluble materials, 14C-uridine", "experimental": "(§1) (2) L1210 cells were inoculated at 5×10^5 cells/ml into a RPMI 1640 medium containing 10% calf serum and cultivated at 37° C. for 1 to 2 hours in a CO2 incubator. The compound in the present invention at various concentrations and ^14 C-thymidine (0.05 μCi/ml) or ^14 C-uridine (0.05 μCi/ml) were added and incubated at 37° C. for 60 min. After stopping the pulse-labeling by addition of 10% trichloroacetic acid (TCA) to the reaction mixture, acid-insoluble materials were precipitated, washed 3 times with 5 to 10% TCA, and dissolved in a small amount of formic acid, and then the radioactivity of the solution was determined. Effects on the biosynthesis of DNA and RNA were shown by the 50% inhibition concentration (IC50) of the incorporation of radioactivity into acid-insoluble materials."}, "[3]": {"system": "biosynthesis of DNA in L1210 cells", "assay": "DNA biosynthesis in L1210 cells (incorporation of 14C-thymidine into acid-insoluble materials)", "format": "cell-based, murine", "conditions": "Mus musculus, L1210, 1 h; 60 min, 37° C., 14C-thymidine 0.05 μCi/ml; read-out: IC50 of the incorporation of radioactivity into acid-insoluble materials, 14C-thymidine", "experimental": "as §1"}, "leukemic L1210": {"system": "leukemic L1210", "assay": "antitumor activity in leukemic L1210-bearing mice", "format": "in vivo, BDF1 mice", "conditions": "in words", "experimental": "(§2) For example, BDF1 mice were inoculated intraperitoneally with 1×10^6 cells/mouse. 24 hours after inoculation, the compound was intraperitoneally injected once daily for 10 days consecutively. […] At the dose of 10 mg/kg/day weight loss was observed, but general toxicity was less than daunomycin."}, "Sal. typhimurium": {"system": "Sal. typhimurium", "assay": "mutagenicity by the Ames' test"}, "toxicity in mice": {"assay": "toxicity in mice", "format": "in vivo", "conditions": "in words", "experimental": "as §2"}}}
{"smiles": "COc1ccc(O)c2c1C(=O)c1c(O)c3c(c(O)c1C2=O)C[C@@](O)(C(C)O)C[C@@H]3O[C@H]1C[C@H](N)[C@H](O)[C@H](C)O1", "note": "(stereo partly shown) [1-hydroxy-13-dihydrodaunomycin]", "values": [{"measurement": "inhibition at 0.1 µg/mL", "setting": "[1]; 0.1 μg/ml", "result": 10.8, "unit": "%"}, {"measurement": "inhibition at 0.5 µg/mL", "setting": "[1]", "result": 52.2, "unit": "%"}, {"measurement": "IC50", "setting": "[2]", "result": 1.8, "unit": "µg/mL"}, {"measurement": "IC50", "setting": "[3]", "result": 3.8, "unit": "µg/mL"}, {"measurement": "antitumor activity in leukemic L1210-bearing mice", "setting": "leukemic L1210", "result": "marked antitumor activity"}, {"measurement": "mutagenicity relative to daunomycin", "setting": "Sal. typhimurium", "result": "decrease about a half of daunomycin"}, {"measurement": "toxicity in mice compared with daunomycin", "setting": "toxicity in mice", "result": "lower toxicity than daunomycin"}]}
{"smiles": "COc1ccc(O)c2c1C(=O)c1c(O)c3c(c(O)c1C2=O)C[C@@](O)(C(C)O)C[C@@H]3O[C@H]1C[C@H](NC=O)[C@H](O)[C@H](C)O1", "note": "(stereo partly shown) [N-formyl-1-hydroxy-13-dihydrodaunomycin]", "values": [{"measurement": "inhibition at 0.5 µg/mL", "setting": "[1]", "result": 16, "unit": "%"}, {"measurement": "IC50", "setting": "[2]", "result": "> 2.5", "unit": "µg/mL"}, {"measurement": "IC50", "setting": "[3]", "result": "> 2.5", "unit": "µg/mL"}, {"measurement": "antitumor activity in leukemic L1210-bearing mice", "setting": "leukemic L1210", "result": "marked antitumor activity"}, {"measurement": "mutagenicity relative to daunomycin", "setting": "Sal. typhimurium", "result": "decrease about a half of daunomycin"}, {"measurement": "toxicity in mice compared with daunomycin", "setting": "toxicity in mice", "result": "lower toxicity than daunomycin"}]}
